Results taken from paper PMC9609070 (ACS Omega, 2022).
Read-outs that look alike come from different tables or passages of the source.

Tests used:
[1] = Preferential solvation analysis by inverse Kirkwood–Buff integrals; format: physicochemical; settings: NMP+water, T=298.15 K
[2] = cited from earlier work

- 100 δx1,3 (preferential solvation parameter by NMP) ([1]; x1=0.00): 0.00
- D (derivative of Gibbs energy of transfer vs x1) ([1]; x1=0.00): –71.31 kJ·mol^–1
- G1,3 (Kirkwood–Buff integral) ([1]; x1=0.00): –702.7 cm^3·mol^–1
- G2,3 (Kirkwood–Buff integral) ([1]; x1=0.00): –182.2 cm^3·mol^–1
- 100 δx1,3 (preferential solvation parameter by NMP) ([1]; x1=0.05): –3.21
- D (derivative of Gibbs energy of transfer vs x1) ([1]; x1=0.05): –64.29 kJ·mol^–1
- G1,3 (Kirkwood–Buff integral) ([1]; x1=0.05): –669.9 cm^3·mol^–1
- G2,3 (Kirkwood–Buff integral) ([1]; x1=0.05): –311.3 cm^3·mol^–1
- δx1,3 (preferential solvation parameter by NMP) ([1]; x1=0.05): −3.21 × 10^–2
- 100 δx1,3 (preferential solvation parameter by NMP) ([1]; x1=0.10): –3.19
- D (derivative of Gibbs energy of transfer vs x1) ([1]; x1=0.10): –57.63 kJ·mol^–1
- G1,3 (Kirkwood–Buff integral) ([1]; x1=0.10): –596.6 cm^3·mol^–1
- G2,3 (Kirkwood–Buff integral) ([1]; x1=0.10): –417.0 cm^3·mol^–1
- δx1,3 (preferential solvation parameter by NMP) ([1]; x1=0.10): −3.19 × 10^–2
- 100 δx1,3 (preferential solvation parameter by NMP) ([1]; x1=0.15): –0.64
- D (derivative of Gibbs energy of transfer vs x1) ([1]; x1=0.15): –51.33 kJ·mol^–1
- G1,3 (Kirkwood–Buff integral) ([1]; x1=0.15): –513.2 cm^3·mol^–1
- G2,3 (Kirkwood–Buff integral) ([1]; x1=0.15): –484.4 cm^3·mol^–1
- 100 δx1,3 (preferential solvation parameter by NMP) ([1]; x1=0.20): 1.92
- D (derivative of Gibbs energy of transfer vs x1) ([1]; x1=0.20): –45.42 kJ·mol^–1
- G1,3 (Kirkwood–Buff integral) ([1]; x1=0.20): –438.6 cm^3·mol^–1
- G2,3 (Kirkwood–Buff integral) ([1]; x1=0.20): –519.2 cm^3·mol^–1
- 100 δx1,3 (preferential solvation parameter by NMP) ([1]; x1=0.25): 3.70
- D (derivative of Gibbs energy of transfer vs x1) ([1]; x1=0.25): –39.89 kJ·mol^–1
- G1,3 (Kirkwood–Buff integral) ([1]; x1=0.25): –378.9 cm^3·mol^–1
- G2,3 (Kirkwood–Buff integral) ([1]; x1=0.25): –532.6 cm^3·mol^–1
- 100 δx1,3 (preferential solvation parameter by NMP) ([1]; x1=0.30): 4.75
- D (derivative of Gibbs energy of transfer vs x1) ([1]; x1=0.30): –34.76 kJ·mol^–1
- G1,3 (Kirkwood–Buff integral) ([1]; x1=0.30): –332.9 cm^3·mol^–1
- G2,3 (Kirkwood–Buff integral) ([1]; x1=0.30): –533.5 cm^3·mol^–1
- 100 δx1,3 (preferential solvation parameter by NMP) ([1]; x1=0.35): 5.27
- D (derivative of Gibbs energy of transfer vs x1) ([1]; x1=0.35): –30.04 kJ·mol^–1
- G1,3 (Kirkwood–Buff integral) ([1]; x1=0.35): –298.0 cm^3·mol^–1
- G2,3 (Kirkwood–Buff integral) ([1]; x1=0.35): –527.4 cm^3·mol^–1
- δx1,3 (preferential solvation parameter by NMP) ([1]; x1=0.40 (maximum)): 5.41 × 10^–2
- 100 δx1,3 (preferential solvation parameter by NMP) ([1]; x1=0.40): 5.41
- D (derivative of Gibbs energy of transfer vs x1) ([1]; x1=0.40): –25.73 kJ·mol^–1
- G1,3 (Kirkwood–Buff integral) ([1]; x1=0.40): –271.3 cm^3·mol^–1
- G2,3 (Kirkwood–Buff integral) ([1]; x1=0.40): –517.0 cm^3·mol^–1
- 100 δx1,3 (preferential solvation parameter by NMP) ([1]; x1=0.45): 5.28
- D (derivative of Gibbs energy of transfer vs x1) ([1]; x1=0.45): –21.85 kJ·mol^–1
- G1,3 (Kirkwood–Buff integral) ([1]; x1=0.45): –250.7 cm^3·mol^–1
- G2,3 (Kirkwood–Buff integral) ([1]; x1=0.45): –503.6 cm^3·mol^–1
- 100 δx1,3 (preferential solvation parameter by NMP) ([1]; x1=0.50): 4.96
- D (derivative of Gibbs energy of transfer vs x1) ([1]; x1=0.50): –18.40 kJ·mol^–1
- G1,3 (Kirkwood–Buff integral) ([1]; x1=0.50): –234.5 cm^3·mol^–1
- G2,3 (Kirkwood–Buff integral) ([1]; x1=0.50): –487.7 cm^3·mol^–1
- 100 δx1,3 (preferential solvation parameter by NMP) ([1]; x1=0.55): 4.49
- D (derivative of Gibbs energy of transfer vs x1) ([1]; x1=0.55): –15.39 kJ·mol^–1
- G1,3 (Kirkwood–Buff integral) ([1]; x1=0.55): –221.7 cm^3·mol^–1
- G2,3 (Kirkwood–Buff integral) ([1]; x1=0.55): –469.5 cm^3·mol^–1
- 100 δx1,3 (preferential solvation parameter by NMP) ([1]; x1=0.60): 3.93
- D (derivative of Gibbs energy of transfer vs x1) ([1]; x1=0.60): –12.84 kJ·mol^–1
- G1,3 (Kirkwood–Buff integral) ([1]; x1=0.60): –211.6 cm^3·mol^–1
- G2,3 (Kirkwood–Buff integral) ([1]; x1=0.60): –449.4 cm^3·mol^–1
- 100 δx1,3 (preferential solvation parameter by NMP) ([1]; x1=0.65): 3.34
- D (derivative of Gibbs energy of transfer vs x1) ([1]; x1=0.65): –10.75 kJ·mol^–1
- G1,3 (Kirkwood–Buff integral) ([1]; x1=0.65): –203.7 cm^3·mol^–1
- G2,3 (Kirkwood–Buff integral) ([1]; x1=0.65): –428.7 cm^3·mol^–1
- 100 δx1,3 (preferential solvation parameter by NMP) ([1]; x1=0.70): 2.76
- D (derivative of Gibbs energy of transfer vs x1) ([1]; x1=0.70): –9.13 kJ·mol^–1
- G1,3 (Kirkwood–Buff integral) ([1]; x1=0.70): –197.7 cm^3·mol^–1
- G2,3 (Kirkwood–Buff integral) ([1]; x1=0.70): –409.5 cm^3·mol^–1
- 100 δx1,3 (preferential solvation parameter by NMP) ([1]; x1=0.75): 2.24
- D (derivative of Gibbs energy of transfer vs x1) ([1]; x1=0.75): –7.99 kJ·mol^–1
- G1,3 (Kirkwood–Buff integral) ([1]; x1=0.75): –193.3 cm^3·mol^–1
- G2,3 (Kirkwood–Buff integral) ([1]; x1=0.75): –394.9 cm^3·mol^–1
- 100 δx1,3 (preferential solvation parameter by NMP) ([1]; x1=0.80): 1.81
- D (derivative of Gibbs energy of transfer vs x1) ([1]; x1=0.80): –7.33 kJ·mol^–1
- G1,3 (Kirkwood–Buff integral) ([1]; x1=0.80): –190.1 cm^3·mol^–1
- G2,3 (Kirkwood–Buff integral) ([1]; x1=0.80): –388.5 cm^3·mol^–1
- 100 δx1,3 (preferential solvation parameter by NMP) ([1]; x1=0.85): 1.44
- D (derivative of Gibbs energy of transfer vs x1) ([1]; x1=0.85): –7.18 kJ·mol^–1
- G1,3 (Kirkwood–Buff integral) ([1]; x1=0.85): –187.8 cm^3·mol^–1
- G2,3 (Kirkwood–Buff integral) ([1]; x1=0.85): –394.4 cm^3·mol^–1
- 100 δx1,3 (preferential solvation parameter by NMP) ([1]; x1=0.90): 1.10
- D (derivative of Gibbs energy of transfer vs x1) ([1]; x1=0.90): –7.54 kJ·mol^–1
- G1,3 (Kirkwood–Buff integral) ([1]; x1=0.90): –186.0 cm^3·mol^–1
- G2,3 (Kirkwood–Buff integral) ([1]; x1=0.90): –417.8 cm^3·mol^–1
- 100 δx1,3 (preferential solvation parameter by NMP) ([1]; x1=0.95): 0.69
- D (derivative of Gibbs energy of transfer vs x1) ([1]; x1=0.95): –8.41 kJ·mol^–1
- G1,3 (Kirkwood–Buff integral) ([1]; x1=0.95): –184.2 cm^3·mol^–1
- G2,3 (Kirkwood–Buff integral) ([1]; x1=0.95): –467.3 cm^3·mol^–1
- 100 δx1,3 (preferential solvation parameter by NMP) ([1]; x1=1.00): 0.00
- D (derivative of Gibbs energy of transfer vs x1) ([1]; x1=1.00): –9.81 kJ·mol^–1
- G1,3 (Kirkwood–Buff integral) ([1]; x1=1.00): –181.8 cm^3·mol^–1
- G2,3 (Kirkwood–Buff integral) ([1]; x1=1.00): –563.4 cm^3·mol^–1
Compound: Cc1cnc(NC(=O)C2=C(O)c3ccccc3S(=O)(=O)N2C)s1 [Meloxicam, 4-hydroxy-2-methyl-N-(5-methyl-2-thiazolyl)-2H-1,2-benzothiazine-3-carboxamide-1,1-dioxide]
- Solubility-increasing effect ([2]; Carbitol as cosolvent): 1144 times
- Solubility-increasing effect ([2]; N,N-dimethylformamide (DMF) as cosolvent): 11,233 times
- Solubility-increasing effect ([2]; N-methylformamide (NMF) as cosolvent): 1399 times
- Solubility-increasing effect ([2]; dimethyl sulfoxide (DMSO) as cosolvent): 6956 times
